Measurements as given in US9347934B2, “Assays for identifying compounds that modulate bitter taste” (CHROMOCELL CORPORATION, priority 2011, dated 2016).

Assays:
Assay type in all cases: cell-based
[1] = target: T1, TAS2R39 (Homo sapiens, UniProt P59534); experiment: Calcium fluorescence functional assay, TAS2R39 cell line; details: 20 mM tastant; cell line expressing human TAS2R39 and mouse Gα15
T1 construct: expressed in transfected cells
T1 sequence (P59534 1-338): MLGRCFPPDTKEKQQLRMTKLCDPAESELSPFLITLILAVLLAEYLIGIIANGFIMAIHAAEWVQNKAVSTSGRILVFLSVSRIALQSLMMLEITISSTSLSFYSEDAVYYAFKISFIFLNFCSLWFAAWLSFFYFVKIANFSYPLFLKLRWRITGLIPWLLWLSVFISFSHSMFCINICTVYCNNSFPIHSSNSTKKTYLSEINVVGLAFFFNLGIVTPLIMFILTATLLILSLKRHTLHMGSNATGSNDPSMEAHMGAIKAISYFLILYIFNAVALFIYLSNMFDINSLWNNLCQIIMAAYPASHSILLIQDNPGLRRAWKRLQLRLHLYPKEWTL
Method: (§1) Accordingly, each cell line of the panel expressed a human bitter taste receptor and mouse Gα15 signaling protein.
(§2) Probenecid was not included in the load solution.
(§3) After dye loading, cell plates were placed in a fluorescent plate reader (e.g., FDSS6000 (Hamamatsu, Japan)) and receptor stimulation was measured by adding 50 ul of 3× concentrated ligand/agonist stock. Fluorescence was monitored continuously for 10 s before agonist addition and for 100-250 s after stimulation with agonist.
(§4) Receptor Activation is defined as follows: % Activation=[((Maximum signal fluorescence−Minimum signal fluorescence)−(Maximum control fluorescence−Minimum control fluorescence))/(Maximum buffer fluorescence−Minimum buffer fluorescence)]*100 Functional Response=[(Maximum signal fluorescence−Minimum signal fluorescence)−(Maximum control fluorescence−Minimum control fluorescence)] • Signal Fluorescence: refers to the change in fluorescence seen with addition of ligand • Control fluorescence: refers to the change in fluorescence seen with addition of buffer (negative control) • Calcium signals from ligand and control were normalized to the basal fluorescence of the cells prior to the stimulation.
(§5) A concentration analysis was performed and EC50 values were calculated by nonlinear regression using the formula: Y=Bottom+(Top-Bottom)/(1+10^((Log EC50-X)*Hill Slope)), X=log of dose or concentration, Y=Response (increasing as X increases), Top=maximum signal, Bottom=minimum signal.

[2] = target: T2, TAS2R10 (Homo sapiens, UniProt Q9NYW0); experiment: Calcium fluorescence functional assay, TAS2R10 cell line; details: 20 mM tastant; cell line expressing human TAS2R10 and mouse Gα15
T2 construct: expressed in transfected cells
T2 sequence (Q9NYW0 1-307): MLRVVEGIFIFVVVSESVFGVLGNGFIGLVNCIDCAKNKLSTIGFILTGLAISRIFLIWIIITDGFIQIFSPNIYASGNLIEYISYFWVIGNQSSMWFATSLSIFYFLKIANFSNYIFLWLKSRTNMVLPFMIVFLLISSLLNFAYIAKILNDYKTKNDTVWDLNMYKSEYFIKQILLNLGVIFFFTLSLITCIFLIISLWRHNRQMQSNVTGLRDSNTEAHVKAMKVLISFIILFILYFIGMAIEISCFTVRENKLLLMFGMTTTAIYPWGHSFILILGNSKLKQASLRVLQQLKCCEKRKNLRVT
Method: as §1, §2, §3, §4, §5

[3] = target: T3, TAS2R48 (Homo sapiens, UniProt P59542); experiment: Calcium fluorescence functional assay, TAS2R48 cell line; details: 20 mM tastant; cell line expressing human TAS2R48 and mouse Gα15
T3 construct: expressed in transfected cells
T3 sequence (P59542 1-299): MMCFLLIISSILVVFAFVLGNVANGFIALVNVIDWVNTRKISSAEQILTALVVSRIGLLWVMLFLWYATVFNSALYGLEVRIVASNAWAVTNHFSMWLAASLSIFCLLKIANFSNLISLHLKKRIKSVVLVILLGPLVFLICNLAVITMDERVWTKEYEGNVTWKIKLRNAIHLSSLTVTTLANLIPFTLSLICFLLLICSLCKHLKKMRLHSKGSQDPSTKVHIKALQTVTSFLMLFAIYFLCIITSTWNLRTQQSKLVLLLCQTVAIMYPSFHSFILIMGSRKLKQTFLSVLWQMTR
Method: as §1, §2, §3, §4, §5

[4] = target: T4, TAS2R45 (Homo sapiens, UniProt P59539); experiment: Calcium fluorescence functional assay, TAS2R45 cell line; details: 20 mM tastant; cell line expressing human TAS2R45 and mouse Gα15
T4 construct: expressed in transfected cells
T4 sequence (P59539 1-299): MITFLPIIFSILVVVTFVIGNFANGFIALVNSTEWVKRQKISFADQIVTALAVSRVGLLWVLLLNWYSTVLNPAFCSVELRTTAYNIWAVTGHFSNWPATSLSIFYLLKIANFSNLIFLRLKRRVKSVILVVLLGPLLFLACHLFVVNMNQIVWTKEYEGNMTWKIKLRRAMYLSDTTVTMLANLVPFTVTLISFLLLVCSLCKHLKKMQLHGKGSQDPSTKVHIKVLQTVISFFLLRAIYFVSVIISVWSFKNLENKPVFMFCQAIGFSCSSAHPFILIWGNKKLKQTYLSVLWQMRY
Method: as §1, §2, §3, §4, §5

[5] = target: T5, TAS2R13 (Homo sapiens, UniProt Q9NYV9); experiment: Calcium fluorescence functional assay, TAS2R13 cell line; details: for TAS2R13 bitter taste receptor activity (changes in intracellular calcium): 20 mM tastant, cell line expressing human TAS2R13 and mouse Gα15
T5 construct: expressed in transfected cells
T5 sequence (Q9NYV9 1-303): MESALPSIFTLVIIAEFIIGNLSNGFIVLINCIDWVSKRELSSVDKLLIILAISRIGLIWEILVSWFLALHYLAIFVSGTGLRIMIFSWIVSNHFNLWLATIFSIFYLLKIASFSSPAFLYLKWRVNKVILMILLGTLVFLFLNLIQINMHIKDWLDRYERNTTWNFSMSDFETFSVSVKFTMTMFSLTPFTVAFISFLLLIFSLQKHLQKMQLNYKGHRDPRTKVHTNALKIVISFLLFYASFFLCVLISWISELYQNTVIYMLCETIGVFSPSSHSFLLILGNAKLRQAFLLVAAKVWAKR
Method: as §1, §2, §3, §4, §5

[6] = target: T6, TAS2R7 (Homo sapiens, UniProt Q9NYW3); experiment: Calcium fluorescence functional assay, TAS2R7 cell line; details: 20 mM tastant; cell line expressing human TAS2R7 and mouse Gα15
T6 construct: expressed in transfected cells
T6 sequence (Q9NYW3 1-318): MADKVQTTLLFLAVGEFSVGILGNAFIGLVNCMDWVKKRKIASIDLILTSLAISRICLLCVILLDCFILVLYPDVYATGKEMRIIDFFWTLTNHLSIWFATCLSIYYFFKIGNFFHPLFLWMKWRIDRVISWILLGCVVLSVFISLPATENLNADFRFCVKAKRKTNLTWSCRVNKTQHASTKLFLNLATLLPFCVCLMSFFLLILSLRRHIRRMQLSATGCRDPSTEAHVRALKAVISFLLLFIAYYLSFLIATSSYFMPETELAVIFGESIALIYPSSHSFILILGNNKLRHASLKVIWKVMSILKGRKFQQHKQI
Method: as §1, §2, §3, §4, §5

SMILES	TAS2R39 bitter taste receptor activity (changes in intracellular calcium) [1]	TAS2R10 bitter taste receptor activity (changes in intracellular calcium) [2]	TAS2R48 bitter taste receptor activity (changes in intracellular calcium) [3]	TAS2R45 bitter taste receptor activity (changes in intracellular calcium) [4]	TAS2R13 bitter taste receptor activity (changes in intracellular calcium) [5]	TAS2R7 bitter taste receptor activity (changes in intracellular calcium) [6]	EC50 ([5]; increasing concentrations of KCl, TAS2R13 cell line (FIG. 3), read-out: EC50 value, activation of TAS2R13)
CC1=CC(=O)NS(=O)(=O)O1 [Acesulfame K]	did not induce	did not induce	did not induce	did not induce	induced	did not induce	–
[Cl-].[K+] [KCl, potassium chloride]	did not induce	did not induce	did not induce	did not induce	induced	did not induce	5 to 15 mM
CC(O)C(=O)[O-].[K+] (stereo not shown) [Potassium lactate, potassium lactate]	did not induce	did not induce	did not induce	did not induce	induced	did not induce	–
